Measurements from patent US7977064B2, “Disheveled PDZ modulators” (Genentech, Inc., priority 2006, dated 2011).
“Also recorded” adds a separate entry of the source. No end group written: not given here.

Tests used:
Dvl2PDZ [1] = molecular target: T1, Dvl2PDZ (Homo sapiens, UniProt O14641); assay: Fluorescence polarization assay, peptides binding to Dvl2PDZ
T1 construct: protein fragments spanning amino acids 248-364 of the full-length Dvl2 were produced; made in house; host or cells: E. coli (pGEX system)
T1 sequence (O14641 248-364): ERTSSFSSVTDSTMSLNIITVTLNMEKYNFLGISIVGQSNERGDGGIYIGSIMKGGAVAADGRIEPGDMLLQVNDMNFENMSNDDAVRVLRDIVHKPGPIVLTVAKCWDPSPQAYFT
Experimental: The binding affinities of synthetic peptides were also measured by Flourescence polarization assay. Serial dilution of purified Dvl2PDZ domain polypeptide (1-10 μM) was incubated with 10 nM probe peptide (FAM-KWYGWL-COOH) (SEQ ID NO: 169) in PBS, 0.1% Triton X100 as 30 μl volume in 96-well black HE96 plates (LJL Biosystem, Inc, Calif.), and incubated for 15 minutes at room temperature. Polarization measurements were performed in Analyst platereader (LJL Biosystems, Inc., Sunnyvale, Calif.). Ks=536 nM was derived from this assay by non-linear regression fitting with KaleidaGraph™. Competition experiments were performed by addition of serial dilution of the free peptides (0-500 μM) to solution with 10 nM probe and 1 μM Dvl2PDZ. The polarization was measured and IC50 values were derived as described above. Ki values were calculated as described previously.

Dvl2PDZ [2] = molecular target: T1, Dvl2PDZ; assay: Competition ELISA, peptides binding to Dvl2PDZ
Description: Many methods are known and can be used to identify the binding affinities of binding molecules (e.g. peptides, proteins, small molecules, etc.); for example, binding affinities can be determined as IC50 values using competition ELISAs. The IC50 value is defined as the concentration of binder which blocks 50% of Dvl PDZ domain binding to a ligand. For example, in solid phase assays, assay plates may be prepared by coating microwell plates (preferably treated to efficiently adsorb protein) with neutravidin, avidin or streptavidin. […] After further washing, the binding reactions are detected, often with an antibody recognizing the non-PDZ fusion partner and a labeled (such as horseradish peroxidase (HRP), alkaline phosphatase (AP), or a fluorescent tag such as fluorescein) secondary antibody recognizing the primary antibody. The plates are then developed with the appropriate substrate (depending on the label) and the signal quantified, such as using a spectrophotometric plate reader. […] Thus the ability of the various molecules to inhibit PDZ domain from binding a known PDZ domain binder can be measured.
Affinity assays—The binding affinities of peptides for Dvl2PDZ were determined as IC50 values using a competition ELISA, as previously described. […]

[3] = tested on: Wnt3a-stimulated β-catenin signaling in HEK293S cells; assay: TOPGLOW luciferase reporter assay in HEK293S cells; type: cell-based; details: for Effect on Wnt3a-stimulated transcriptional activity (TopGlow): peptide up to 20 μM in medium
Experimental: HEK293S cells were transfected with the reporter plasmid pTOPGLOW combined with pRL reporter. Cell extract was prepared and the luciferase activity was measured. The relative luciferase unit (RLU) is TopGlow luciferase activity divided by Renila luciferase activity. The fold of activation is the RLU ratio between the Wnt3a-stimulated and non-stimulated cells. Cells were treated with either 10 μM (light bar) or 20 μM (dark bar) peptide ligands.
(§1) Cell culture, transfection and peptide treatment: HEK293 and H1703 were propagated according to the instructions from American Type Culture Collection. HEK293 cells were transfected with FuGene6 according to the manufacturer's instructions (Roche Molecular Biochemicals) at cell confluence of 50%. H1703 cells were transfected with Lipofectamine according to manufacturer's instruction at cell confluence of 80%. Cells were treated with medium containing peptide (5 μM-40 μM) 24 hours after transfection, and were routinely harvested 24 hours after the peptide treatment for additional assays.
TOPGLOW assay: Cells were plated in 12-well plates. The TOPGLOW reporter plasmid was transfected transiently into cells as described above. TCF-mediated gene transcription was determined by pTOPGLOW luciferase activity, which was normalized to relative luciferase activities of pRL reporter (cotransfected internal control). All experiments were performed duplicated.

[4] = tested on: β-catenin protein level in HEK293S cells; assay: Western blot of β-catenin protein level in HEK293S cells; type: cell-based; details: 20 μM peptide, 24 hours, compared to DMSO and PEN
Experimental: HEK293S cells were treated with 20 μM DVLp and PEN for 24 hours. Cell lysate was prepared and subjected to SDS-PAGE. β-catenin was blotted by poly-clonal anti-β-catenin (Genentech, Inc., South San Francisco).
as §1
Western Blot: Harvested cells were lysed with SIC lysis buffer, the supernatant was subjected to SDS-PAGE, which was transferred, blocked and blotted with proper primary antibody by a standard western blot protocol. Fluorescence labeled secondary antibodies (Alexa goat anti-mouse or anti-rabbit) were added and the results were analyzed by Li-core™.

## Ac-GEIVLWSDIPG-NH2 [Peptide N3, G E I V L W S D I P G]
Dvl2PDZ [1]; ratio of Ki values
  Affinity lower than that of D1: 6 fold

## Ac-KGFGML-OH [Peptide D5, K G F G M L]
Dvl2PDZ [2]
  IC50: 242000 nM

## Ac-KWYGWF [Peptide D2, K W Y G W F]
Dvl2PDZ [2]
  IC50: 930 nM

## Ac-KWYGWL-OH [Peptide D1, K W Y G W L]
Dvl2PDZ [1]; competition with 10 nM FAM-KWYGWL-COOH probe, 1 μM Dvl2PDZ, read-out: Ki measured by Flourescence polarization assay
  Ki: 725 nM

## Ac-RQTKIVWFQNRRMKKGEIVLWSDIPG [DVLp_N3]
[3]; HEK293S cells
  Effect on Wnt3a-stimulated transcriptional activity (TopGlow): inhibited Wnt3a-stimulated transcriptional activity significantly; also recorded: blocked the Wnt-stimulated β-catenin signaling
[3]; HEK293S cells, listed as Dvlp_N3
  Effect on Wnt3a-stimulated transcriptional activity (TopGlow): significantly blocked the Wnt-stimulated increase in β-catenin signaling
[3]; HEK293S cells, two independent experiments
  Dose dependence of inhibition of Wnt-stimulated β-catenin signaling: dose-dependent
[3]; HEK293 cells, peptide 5-20 μM
  Inhibition of Wnt3a-stimulated transcriptional activity: up to 80%
[4]
  β-catenin level in whole cell lysate upon Wnt3a stimulation: significantly lower β-catenin levels
[4]; listed as Dvlp_N3
  β-catenin level in whole cell lysate upon Wnt3a stimulation: reduced the Wnt-stimulated increase in β-catenin protein level

## Ac-RQTKIWFQNRRMKWKK [PEN, reference compound]
[3]; HEK293S cells
  Effect on Wnt3a-stimulated transcriptional activity (TopGlow): did not show an inhibition effect
